In patent US20200001109A1, “Methods For Treating Hyperbilirubinemia With Stannsoporfin And Phototherapy” (INFACARE PHARMACEUTICAL CORPORATION, priority 2016, published 2020):

How the values were obtained:
[1] = tested on: total serum bilirubin (TSB); settings: 3.0 and 4.5 mg/kg stannsoporfin patients receiving phototherapy; previous study (placebo 41%); cited from earlier work
[2] = Phase 2b trial of stannsoporfin with phototherapy: safety (adverse events); format: in vivo, human infants
Description: (§1) A Phase 2b multicenter, double-blind, randomized, placebo-controlled parallel group safety and efficacy trial of two doses of stannsoporfin administered as a single intramuscular injection in combination with phototherapy in term and near-term infants has been proposed and performed.
(§2) Infants will be randomized to one of three treatment arms: placebo, 3.0 mg/kg, or 4.5 mg/kg of stannsoporfin in a 1:1:1 ratio. Infants aged 0 to 48 hours (at the time the qualifying TSB is drawn) with ABO or Rh incompatibility who are DAT-positive, or age 0 to 72 hours (at the time the qualifying TSB is drawn) with G6PD deficiency, confirmed by a documented blood test, who require the initiation of phototherapy are eligible for the study. In addition, patients aged 0 to 48 hours (at the time the qualifying TSB is drawn) with ABO or Rh incompatibility who are DAT negative (or status unknown), and have an increased reticulocyte count (>6%), and require the initiation of phototherapy are eligible for the study.
Safety outcome measures are: Incidence of adverse events and serious adverse events, changes in vital sign measurements, results of physical exam (PE) including eye and hearing assessment, results of neurologic exam, ECG assessments, clinical laboratory tests including hematology, serum chemistries, liver function and renal function tests. Adverse events and SAEs will be summarized for each treatment group and overall for both stannsoporfin treatment groups with the proportion of patients reporting each event. Actual values and change from baseline in vital signs, physical and neurologic exam and laboratory test parameters will be summarized for each treatment group and overall for both stannsoporfin treatment groups with descriptive statistics at each assessment obtained. Changes in ECG findings, ophthalmologic and audiology assessments will be summarized for each treatment group and overall for both stannsoporfin treatment groups with descriptive statistics at each assessment obtained, including changes from baseline to Day 30 (early term). Efficacy and safety parameters will also be analyzed according to DAT status.
The results from a Phase 2b multicenter, double blind, randomized, placebo controlled parallel group safety and efficacy trial of two doses of stannsoporfin administered as a single intramuscular (IM) injection in combination with phototherapy (PT) in term and near-term infants, all with an ABO/Rh incompatibility were highly statistically significant and positive. Ninety-one neonates (aged 24 hours of age, range 7 to 54 hours), all at medium to high risk of severe hyperbilirubinemia, all with an ABO/Rh incompatibility, birth weights of 2580 to 4930 grams, and gestational age of 35 to 42 weeks, were randomized to one of three treatment arms: placebo (saline), 3.0 mg/kg stannsoporfin, or 4.5 mg/kg of stannsoporfin. All were included in the intent-to-treat-primary efficacy and safety analyses.
TEAEs occurred in 59% of Stannsoporfin treated infants vs 52% among placebo. Serious TEAEs occurred in 15% of Stannsoporfin treated infants vs 20% of placebo. TEAEs related to phototherapy (eg skin rash, erythema) occurred in 16% of Stannsoporfin treated infants vs 10% of placebo.

[3] = tested on: total serum bilirubin (TSB); experiment: Phase 2b randomized, placebo-controlled trial of single IM stannsoporfin with phototherapy: efficacy on TSB; format: in vivo, human infants; settings: for Rebound Hyperbilirubinemia N: TSB at or above PT threshold after discontinuation of initial PT; for LS Mean Difference vs Placebo in TSB at 48 hrs: difference in TSB percentage change from baseline vs placebo plus phototherapy; for PT Failure N: exchange transfusion, IVIG use, readmission for hyperbilirubinemia or re-started PT; for Time at which TSB crosses at or below the PT threshold, Median: plus phototherapy; for LS Mean Percentage Change in TSB at 48 hrs: single IM injection plus phototherapy, change from baseline, LOCF
Description: as §1, §2
Inclusion Criteria: 1) Term and near-term infants ≥35 and ≤43 weeks gestational age (GA), age 0-48 hours (at the time the qualifying TSB is drawn) with ABO or Rh incompatibility (anti C, c, D, E or e) who are DAT-positive, or age 0-72 hours (at the time the qualifying TSB is drawn) with G6PD deficiency as confirmed by a documented blood test; OR 2) Term and near-term infants ≥35 and ≤43 weeks GA, age 0-48 hours (at the time the qualifying TSB is drawn) with ABO or Rh incompatibility (anti C, c, D, E or e) who are DAT-negative (or status unknown) and have an increased reticulocyte count (>6%); parental or guardian written consent; birth weight ≥2500 grams; TSB at or above the age-specific threshold for initiating phototherapy per the AAP guidelines (see FIG. 1 and Tables 1, 2 and 3); and parents agree to observe light precautions for 10 days post treatment
Once the patient's TSB is at or above the age-specific threshold for phototherapy and all inclusion and no exclusion criteria are met (including laboratory criteria), patients will be immediately randomized to receive a single intramuscular dose of either placebo (saline), 3.0 mg/kg of stannsoporfin or 4.5 mg/kg of stannsoporfin.
Criteria for discontinuing phototherapy: The criteria for discontinuing phototherapy will be standardized. If a TSB measurement is obtained during phototherapy treatment that is below the age-specific threshold for phototherapy (FIG. 1), phototherapy should be discontinued. In order to check for rebound hyperbilirubinemia, a TSB level is to be obtained between 6 and 12 hours after phototherapy is discontinued (must be done before discharge). If the patient remains in the hospital and continues on phototherapy past 48 hours further assessments and procedures are to be conducted as listed in the Time and Event Table (Table 8).
Initiation of Phototherapy: Once the TSB result has been received, the administration of study drug and initiation of phototherapy should occur as soon as practical. phototherapy should be started within a window of no more than ±30 minutes from IMP administration.
Phototherapy must be narrow spectrum blue light with a single overhead unit. The height of the phototherapy unit should be adjusted to obtain an irradiance of 30 microwatts/cm2/nm at the level of the patient's abdomen. Irradiance should be measured and adjusted to maintain 30 microwatts/cm2/nm, until phototherapy is discontinued. The recordings are to be documented in the eCRF.
Monitoring during phototherapy: It is essential to protect the patient's eyes with opaque eye patches. These must be checked periodically to ensure complete eye coverage during phototherapy. Use of biliblankets or home phototherapy is not permitted. TSB levels will be done at 6, 12, 18, 24, 30, 36±2 h, and 48 hours±6 h after study drug administration (Table 8). If the patient continues on phototherapy past 48 hours, the TSB will be obtained every 12±6 h. […]

[4] = all treatment arms of the trial
[5] = Stannsoporfin 3.0 mg/kg (N = 30)
[6] = Stannsoporfin 4.5 mg/kg (N = 31)
[7] = Stannsoporfin Combined (N = 61)
[8] = both high dose (4.5 mg/kg) and low dose (3.0 mg/kg), compared with phototherapy and placebo

SMILES: CCC1=C(C)c2cc3[n-]c(cc4[n-]c(cc5nc(cc1n2)C(C)=C5CC)c(C)c4CCC(=O)O)c(CCC(=O)O)c3C.[Cl-].[Cl-].[Sn+4] [Stannsoporfin, tin-mesoporphyrin IX dichloride]
- increase in TSB at 48 hours [1]: 15%
- Serious TEAEs, proportion of infants ([2]; Stannsoporfin treated infants (both doses) plus phototherapy, vs 20% of placebo): 15%
- treatment-emergent adverse events (TEAEs), proportion of infants ([2]; Stannsoporfin treated infants (both doses) plus phototherapy, vs 52% among placebo): 59%
- TEAEs related to phototherapy (eg skin rash, erythema), proportion of infants ([2]; Stannsoporfin treated infants (both doses), vs 10% of placebo): 16%
- discontinuation of the study due to an adverse event [2, 4]: no infant discontinued the study due to an adverse event
- infant deaths [2, 4]: no infant deaths
- safety signals ([2]; either dose (3.0 or 4.5 mg/kg)): no safety signals
- PT Failure (%) [3, 5]: (10%)
- PT Failure Odds Ratio vs Placebo [3, 5]: 0.31
- Rebound Hyperbilirubinemia (%) [3, 5]: (9%)
- Rebound Hyperbilirubinemia N [3, 5]: 0/30
- LS Mean Difference vs Placebo in TSB at 48 hrs [3, 5]: −31.69
- PT Failure N [3, 5]: 3/30
- Time at which TSB crosses at or below the PT threshold, Median [3, 5]: 11.8 h
- LS Mean Percentage Change in TSB at 48 hrs [3, 5]: −9.5%
- PT Failure (%) [3, 6]: (3%)
- PT Failure Odds Ratio vs Placebo [3, 6]: 0.09
- Rebound Hyperbilirubinemia (%) [3, 6]: (3%)
- Rebound Hyperbilirubinemia N [3, 6]: 1/31
- LS Mean Difference vs Placebo in TSB at 48 hrs [3, 6]: −27.69
- PT Failure N [3, 6]: 1/31
- Time at which TSB crosses at or below the PT threshold, Median [3, 6]: 10.6 h
- LS Mean Percentage Change in TSB at 48 hrs [3, 6]: −5.5%
- PT Failure (%) [3, 7]: (7%)
- PT Failure Odds Ratio vs Placebo [3, 7]: 0.20
- Rebound Hyperbilirubinemia (%) [3, 7]: (2%)
- Rebound Hyperbilirubinemia N [3, 7]: 1/61
- LS Mean Difference vs Placebo in TSB at 48 hrs [3, 7]: −29.69
- PT Failure N [3, 7]: 4/61
- Time at which TSB crosses at or below the PT threshold, Median [3, 7]: 11.6 h
- LS Mean Percentage Change in TSB at 48 hrs [3, 7]: −7.4%
- effect on percentage change in total serum bilirubin (TSB) at 24 hours after drug administration [3, 8]: highly statistically significant (P<0.0001) positive effect
- effect on percentage change in total serum bilirubin (TSB) at 48 hours after drug administration [3, 8]: highly significant (P<0.0001) positive effect
- effect on percentage change in total serum bilirubin (TSB) at 48 hours after drug administration ([3]; both high dose (4.5 mg/kg) and low dose (3.0 mg/kg), compared with phototherapy and placebo, listed as stannsoporfin): statistically significant positive effect
